This passage reports melting point and IC50 results from US8501803B2, “Garcinia derivative, its preparing method and medicinal use” (China Pharmaceutical University, priority 2010, dated 2013).

Structures are written as SMILES.

As a reminder, the melting point is the temperature, or range, at which the solid turns liquid. The IC50 is the concentration needed to halve the response being measured.

Series [1] has as its system BGC-823 cells (human gastric carcinoma cells). Nature of the series: MTT antiproliferative test on BGC-823 cells. The format is cell-based. The following applies: 96 h, 4 days culture, BGC-823 human gastric carcinoma cells, read-out: BGC-823 cell IC50. As to the method: (§1) Test method: The cells of log phase are cultivated in the culture plate with 96 pores, and each pore contains 100 μL of solution (including 1000-1200 tumor cells). The next day, different concentrations of the present compound are added to the treatment groups, each compound contains 4 to 5 dosage groups, and each dosage group contains at least 3 parallel pores. The solvent with an equivalent volume of the said compound is added to the control groups. The said culture plate is then placed in a 5% CO2 incubator, cultured at 37° C., and the culture solution is discharged 4 days later. Next, 200 μL of the 0.2% MTT solution (RPMI1640 preparation) is added to each pore and incubated at 37° C. for 4 hours; the obtained supernatant is discharged; and 150 μL of DMSO is added to each pore so as to dissolve formazane particles. After slightly shaking the mixture, the optical density (OD) is measured by the ELIASA in the conditions of a resulting reference wavelength 450 nm and a detection wavelength 570 nm. The tumor cells treated with solvent are used as control groups, and the inhibition rate of the drugs against the tumor cells and IC50 are calculated according to the following equation. […] The MCF-7 cells are human breast cancer cells and the BGC-823 cells are human gastric carcinoma cells.
A general note: Tetrazolium dyes change colour on reduction, which living cells bring about.

The subject of series [2] is MCF-7 cells (human breast cancer cells). Nature of the series: MTT antiproliferative test on MCF-7 cells. The format is cell-based. To be noted: MCF7, 96 h, 4 days culture, MCF-7 human breast cancer cells, read-out: MCF-7 cell IC50. As to the method: as §1

With `CC(C)=CCC12OC(C)(C)C3CC(C=C4C(=O)c5cc(O)ccc5OC431)C2=O` (stereo not drawn), the melting point lay in the range of 158 to 159 °C.

As for `CC(C)=CCC12OC(C)(C)C3CC(C=C4C(=O)c5cccc(O)c5OC431)C2=O` (stereo not drawn), the melting point was in the range of 203 to 205 °C.

As for `CC(C)=CCC[C@]1(C)C=Cc2c(O)c3c(c(CC=C(C)C)c2O1)O[C@]12C(=C[C@@H]4C[C@H]1C(C)(C)O[C@@]2(C/C=C(/C)C(=O)O)C4=O)C3=O` [Gambogic acid, gambogic acid, reference compound], the values for the IC50 in series [1] and in series [2] were 2.35 µM and 2.19 µM, respectively.

The compound `CC(C)=CCc1ccc2c(c1O)OC13C(=CC4CC1C(C)(C)OC3(CC=C(C)C)C4=O)C2=O` (stereo not drawn) [CPUY I-8, 3,3a,4,5-tetrahydro-3,3-dimethyl-1,10-bis(3-methyl-2-butenyl)-11-hydroxyl-1,5-dimeth ylene-1H,7H-furan[3,4-d]xanthene-7,13-diketone] displayed a melting point of 157 to 158 °C. For the same compound, the IC50 in series [1] amounted to 11.3 µM. Besides, in series [2], the IC50 amounted to 9.06 µM.

`CC(C)=CCC12OC(C)(C)C3CC(C=C4C(=O)c5ccc(O)cc5OC431)C2=O` (stereo not drawn) [CPUY I-2, 3,3a,4,5-tetrahydro-3,3-dimethyl-1-(3-methyl-2-butenyl)-10-hydroxyl-1,5-dimethylene-1H,7H-furan[3,4-d]xanthene-7,13-diketone]: the melting point fell in the range of 197 to 199 °C. Also, the IC50 in series [1] was 17.6 µM. In series [2], the 50% inhibitory concentration (IC50) amounted to 12.4 µM.

`CC(C)=CCc1cc2c(cc1O)C(=O)C1=CC3C4CC1(O2)C(=O)C3(CC=C(C)C)OC4(C)C` (stereo not drawn) [CPUY I-7, 1,3a,4,11a-tetrahydro-3,3-dimethyl-1,7-bis(3-methyl-2-butenyl)-8-hydroxyl-3H-1,4-a-dimethylene-10H-furan[3,4-b]xanthene-10,12-diketone] had a melting point of 148 to 150 °C. Besides, the half-inhibitory concentration (IC50) in series [1] came to 18.2 µM. For the same compound, the IC50 in series [2] is 10.9 µM.

With `CC(C)=CCC12OC(C)(C)C3CC(C=C4C(=O)c5c(O)cccc5OC431)C2=O` (stereo not drawn) [CPUY I-1, 3,3a,4,5-tetrahydro-3,3-dimethyl-1-(3-methyl-2-butenyl)-8-hydroxyl-1,5-dimethylene-1H,7H-furan[3,4-d]xanthene-7,13-diketone], the IC50 is 3.59 µM in series [1] and 9.16 µM in series [2].

The compound `CC(C)=CCc1c(O)ccc2c1OC13C(=CC4CC1C(C)(C)OC3(CC=C(C)C)C4=O)C2=O` (stereo not drawn) [CPUY I-5, 3,3a,4,5-tetrahydro-3,3-dimethyl-1,11-bis(3-methyl-2-butenyl)-10-hydroxyl-1,5-dimethylene-1H,7H-furan[3,4-d]xanthene-7,13-diketone] registered a melting point of 158 to 160 °C. In addition, in series [1], the IC50 was 15 µM. Besides, in series [2], the IC50 is 5.79 µM.

The compound `CC(C)=CCc1c(O)ccc2c1C(=O)C1=CC3CC4C(C)(C)OC(CC=C(C)C)(C3=O)C14O2` (stereo not drawn) [CPUY I-6, 3,3a,4,5-tetrahydro-3,3-dimethyl-1,8-bis(3-methyl-2-butenyl)-9-hydroxyl-1,5-dimethylene-1H,7H-furan[3,4-d]xanthene-7,13-diketone] gave a melting point of 138 to 139 °C. In addition, in series [1], the concentration for half-maximal inhibition (IC50) stood at 21.7 µM. The IC50 in series [2] is 11.9 µM.
